In ChEMBL document CHEMBL1201862, “PubChem BioAssay data set” (2004):
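Each compound was tested at five concentrations against cells in 96-well plates for 48 hours. Abbreviation: GI50, concentration required for 50% inhibition of growth.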 The source made the active and inactive calls. No stated cut-off is given here; in the data, active = GI50 up to about 1.1 µM and inactive = higher.

Columns and labels:
Experiment in all cases: NCI tumour cell line growth inhibition, 48 h
[1] = test system: IGROV-1
[2] = test system: SW-620
[3] = test system: SK-MEL-28
[4] = test system: RXF 393
[5] = test system: COLO 205
[6] = test system: NCI-H23
[7] = test system: OVCAR-5
[8] = test system: Hs-578T
[9] = test system: MDA-N
[10] = test system: TK-10
[11] = test system: HT-29
[12] = test system: HCT-116
[13] = test system: MCF7
[14] = test system: M14
[15] = test system: MDA-MB-231
[16] = test system: HOP-62
[17] = test system: A549
[18] = test system: BT-549
[19] = test system: CCRF-CEM
[20] = test system: MOLT-4

Row | Structure (SMILES) | GI50 [1] | GI50 [2] | GI50 [3] | GI50 [4] | GI50 [5] | GI50 [6] | GI50 [7] | GI50 [8] | GI50 [9] | GI50 [10] | GI50 [11] | GI50 [12] | GI50 [13] | GI50 [14] | GI50 [15] | GI50 [16] | GI50 [17] | GI50 [18] | GI50 [19] | GI50 [20]
1 | O=S(=O)(c1ccccc1)N1CCN(S(=O)(=O)c2ccccc2)c2ccccc21 | > 100 µM (inactive) | > 100 µM (inactive) | > 100 µM (inactive) | > 100 µM (inactive) | > 100 µM (inactive) | 52.1 µM (inactive) | > 100 µM (inactive) | > 100 µM (inactive) | 89.5 µM (inactive) | > 100 µM (inactive) | 93.5 µM (inactive) | 45.2 µM (inactive) | 91.8 µM (inactive) | 96.6 µM (inactive) | > 100 µM (inactive) | > 100 µM (inactive) | > 100 µM (inactive) | > 100 µM (inactive) |  | 
2 | CC(=O)Nc1ccc(C(=O)NN2C(=O)C(Cl)C2c2cc(Br)ccc2O)cc1 (stereo unspecified) | 17.6 µM (inactive) | 6.21 µM (inactive) | 4.38 µM (inactive) |  | 36.1 µM (inactive) | 5.75 µM (inactive) | 19.2 µM (inactive) | 66.1 µM (inactive) | 9.16 µM (inactive) | 36.1 µM (inactive) | 9.46 µM (inactive) | 3.69 µM (inactive) | 3.84 µM (inactive) | 4.54 µM (inactive) | 3.6 µM (inactive) | 2.2 µM (inactive) | 5.46 µM (inactive) | 14.8 µM (inactive) | 1.85 µM (inactive) | 3.37 µM (inactive)
3 | CC(C)(CNC(=O)/C(Cl)=C(/Cl)C(=O)O)CNC(=O)/C(Cl)=C(/Cl)C(=O)O | > 100 µM (inactive) | 40.6 µM (inactive) | > 100 µM (inactive) | > 100 µM (inactive) | 18.2 µM (inactive) |  | > 100 µM (inactive) | > 100 µM (inactive) | > 100 µM (inactive) | 64.3 µM (inactive) | 48.5 µM (inactive) | 36.2 µM (inactive) | 59.6 µM (inactive) |  |  | > 100 µM (inactive) | > 100 µM (inactive) | > 100 µM (inactive) | 39.3 µM (inactive) | 30.9 µM (inactive)
4 | O=c1cc(CO)oc(C(O)c2ccccc2)c1O (stereo unspecified) | > 100 µM (inactive) | > 100 µM (inactive) | > 100 µM (inactive) | > 100 µM (inactive) | > 100 µM (inactive) | > 100 µM (inactive) | > 100 µM (inactive) | > 100 µM (inactive) | > 100 µM (inactive) | > 100 µM (inactive) | > 100 µM (inactive) | > 100 µM (inactive) | > 100 µM (inactive) | > 100 µM (inactive) | > 100 µM (inactive) | > 100 µM (inactive) | > 100 µM (inactive) | > 100 µM (inactive) |  | > 100 µM (inactive)
5 | COc1c(-c2nc3ccc(N4CCN(C)CC4)nc3[nH]2)cc(OC)c2c1nc(CO)n2C | > 100 µM (inactive) | > 100 µM (inactive) | > 100 µM (inactive) | > 100 µM (inactive) | 75.7 µM (inactive) | > 100 µM (inactive) | > 100 µM (inactive) | > 100 µM (inactive) | > 100 µM (inactive) |  | > 100 µM (inactive) | > 100 µM (inactive) |  | > 100 µM (inactive) | > 100 µM (inactive) | > 100 µM (inactive) | > 100 µM (inactive) | > 100 µM (inactive) | > 100 µM (inactive) | > 100 µM (inactive)
6 | Cc1ccc2ccc3ccc(C)nc3c2n1 [NEOCUPROINE] | 0.429 µM (active) | 51.5 µM (inactive) | > 100 µM (inactive) | > 42 µM (inactive) | 0.491 µM (active) | 0.439 µM (active) |  | > 100 µM (inactive) | > 100 µM (inactive) | > 100 µM (inactive) | 0.908 µM (active) | 0.349 µM (active) | 0.318 µM (active) | > 22.2 µM (inactive) | 5.62 µM (inactive) | 4.68 µM (inactive) | 7.11 µM (inactive) | > 100 µM (inactive) | 0.59 µM (active) | 1.34 µM (inactive)
7 | CC(C)[N+]([O-])(CCCNc1c2ccccc2nc2cccc([N+](=O)[O-])c12)C(C)C |  | < 0.0258 µM (active) | < 0.01 µM (active) | 0.172 µM (active) | < 0.019 µM (active) | < 0.0206 µM (active) | < 0.0395 µM (active) | < 0.0481 µM (active) | < 0.0342 µM (active) |  | < 0.0202 µM (active) | < 0.0204 µM (active) | < 0.0272 µM (active) | 0.0347 µM (active) | < 0.01 µM (active) | 0.0525 µM (active) | < 0.0282 µM (active) | < 0.0395 µM (active) | < 0.0412 µM (active) | < 0.0181 µM (active)
8 | COc1cc2ccc(C(=O)NCCCNC(=O)c3ccc4cc(OC)c(OC)cc4c3)cc2cc1OC | > 100 µM (inactive) | > 100 µM (inactive) | > 100 µM (inactive) |  | > 100 µM (inactive) | > 100 µM (inactive) | > 100 µM (inactive) | 36.6 µM (inactive) | > 100 µM (inactive) | > 100 µM (inactive) | > 100 µM (inactive) | > 100 µM (inactive) | > 100 µM (inactive) | > 100 µM (inactive) | 97.1 µM (inactive) | > 100 µM (inactive) | > 100 µM (inactive) | > 100 µM (inactive) | > 100 µM (inactive) | 
9 | CCCCCC/C=C/C#CCCCCCCCC(=O)O | > 100 µM (inactive) | > 100 µM (inactive) | > 100 µM (inactive) |  | > 100 µM (inactive) | > 100 µM (inactive) | > 100 µM (inactive) | > 100 µM (inactive) | > 100 µM (inactive) | > 100 µM (inactive) | > 100 µM (inactive) | > 100 µM (inactive) | > 100 µM (inactive) | > 100 µM (inactive) | > 100 µM (inactive) |  | > 100 µM (inactive) | > 100 µM (inactive) | 82.4 µM (inactive) | 78.2 µM (inactive)
10 | CCC12CCCN(Cc3ccccc3)C1c1c([nH]c3ccccc13)C(C(=O)OC)C2 (stereo unspecified) | > 10 µM (inactive) | > 10 µM (inactive) | > 10 µM (inactive) |  | > 10 µM (inactive) | 8.38 µM (inactive) | 7.89 µM (inactive) | > 10 µM (inactive) | > 10 µM (inactive) | > 10 µM (inactive) | 6.87 µM (inactive) | 4.08 µM (inactive) | > 10 µM (inactive) | > 10 µM (inactive) | > 10 µM (inactive) | > 10 µM (inactive) | > 10 µM (inactive) | > 10 µM (inactive) | > 10 µM (inactive) | 5.85 µM (inactive)
11 | N#Cc1c(Nc2nc3ccccc3s2)c2ccccc2n2c1nc1ccccc12 | > 100 µM (inactive) | > 100 µM (inactive) | > 100 µM (inactive) |  | > 100 µM (inactive) | > 100 µM (inactive) | > 100 µM (inactive) | 45.5 µM (inactive) | > 100 µM (inactive) | > 100 µM (inactive) | > 100 µM (inactive) | > 100 µM (inactive) | > 100 µM (inactive) | > 100 µM (inactive) | 48.4 µM (inactive) | 27.1 µM (inactive) | > 100 µM (inactive) | > 100 µM (inactive) |  | > 100 µM (inactive)
12 | CN(/N=C/c1cccc2cccnc12)c1ccc(Cl)cc1[N+](=O)[O-] | > 100 µM (inactive) | > 100 µM (inactive) |  | > 100 µM (inactive) | > 100 µM (inactive) | > 100 µM (inactive) | > 100 µM (inactive) | 81.5 µM (inactive) | > 100 µM (inactive) | > 100 µM (inactive) | 59.4 µM (inactive) | > 100 µM (inactive) | 31.6 µM (inactive) | > 100 µM (inactive) | > 100 µM (inactive) | > 100 µM (inactive) | > 100 µM (inactive) | > 100 µM (inactive) | > 100 µM (inactive) | 76.7 µM (inactive)
13 | COC(=O)Cc1cccc2c(=O)c(S(=O)(=O)NC(=O)Nc3ccc(Cl)cc3)c(-c3ccccc3)oc12 | 38.5 µM (inactive) | 13.9 µM (inactive) | 34.6 µM (inactive) |  | 34.4 µM (inactive) | 57 µM (inactive) | > 100 µM (inactive) | > 100 µM (inactive) | > 100 µM (inactive) | > 100 µM (inactive) | 74.5 µM (inactive) | 33.3 µM (inactive) | 47.8 µM (inactive) | > 100 µM (inactive) | 29.2 µM (inactive) | > 100 µM (inactive) | 69.2 µM (inactive) | 55.6 µM (inactive) | 15.9 µM (inactive) | 17.1 µM (inactive)
14 | COc1ccc(/N=C2\S/C(=N\C(=N\c3ccccc3)SCc3ccccc3)N(c3ccccc3)\C2=N/c2ccc(OC)cc2)cc1 | > 100 µM (inactive) | > 100 µM (inactive) | 62.4 µM (inactive) | > 100 µM (inactive) | > 100 µM (inactive) | > 100 µM (inactive) |  | > 100 µM (inactive) | > 100 µM (inactive) | > 100 µM (inactive) | > 100 µM (inactive) | > 100 µM (inactive) | > 100 µM (inactive) | 72.1 µM (inactive) | > 100 µM (inactive) | > 100 µM (inactive) | > 100 µM (inactive) | > 100 µM (inactive) | > 100 µM (inactive) | > 100 µM (inactive)
15 | C=C1[C@@H]([C@@]2(C)C=CC(=O)C(C)(C)[C@@H]2CC(=O)OC)CC[C@@]2(C)[C@H](c3ccoc3)OC(=O)[C@H]3O[C@]132 [ANDIROBIN] | > 100 µM (inactive) | > 100 µM (inactive) | > 100 µM (inactive) |  | 93.1 µM (inactive) | > 100 µM (inactive) | > 100 µM (inactive) | > 100 µM (inactive) | > 100 µM (inactive) | > 100 µM (inactive) | > 100 µM (inactive) | > 100 µM (inactive) | > 100 µM (inactive) | > 100 µM (inactive) | > 100 µM (inactive) |  | > 100 µM (inactive) | > 100 µM (inactive) | > 100 µM (inactive) | 83.6 µM (inactive)
